Values quoted from earlier work, collected in patent US20110313191A1, “Preparation of Pharmaceutical Salts of 3-0-(3',3'-Dimethylsuccinyl) Betulinic Acid” (Myrexis, Inc., priority 2005, published 2011).

Test system: HIV
Details: comparison with regioisomer 3-O-2′,2′-DSB; literature statement

- EC50 of 3-O-3′,3′-DSB relative to that of 3-O-2′,2′-DSB: about four orders of magnitude lower
Structure (SMILES): C=C(C)[C@@H]1CC[C@]2(C(=O)O)CC[C@]3(C)[C@H](CC[C@@H]4[C@@]5(C)CC[C@H](OC(=O)CC(C)(C)C(=O)O)C(C)(C)[C@@H]5CC[C@]43C)[C@@H]12 [3-O-3′,3′-DSB, 3-O-(3′,3′-dimethylsuccinyl)betulinic acid]
